# How the values were obtained:
# [1] = Inhibitory concentration against lipopolysaccharide in BC fluorescenced murine macrophages J774A; type: functional, Mus musculus
# [2] = organism: Mus musculus; assay: Effective dose against lipopolysaccharide in BC fluorescenced murine macrophages J774A; type: functional
sequence,measurement,setting,value
POLYMYXIN B [listing 1 of 2 here],IC50,[1],210 µM
POLYMYXIN B [listing 2 of 2 here],ED50,[2],0.31 µM

# Source: ChEMBL document CHEMBL1141991, “Functionalized dendrimers as endotoxin sponges” (Bioorg Med Chem Lett, 2005)
